What follows are substances tested against T1, hSP-A (Homo sapiens, UniProt Q8IWL1+Q8IWL2) (assay: Binding inhibition assay (hSP-A binding to coated mannan)). Conditions: GAGs 15 µM to 30 nM, 5 mM CaCl2 (Fig. 1G).
T1 construct: Human PAP patient, BAL isolated; from tissue; host or cells: bronchoalveolar lavage fluid of a patient with pulmonary alveolar proteinosis
Description: Following previously described assays ([41], [42]), 96-well plates (83.3924.005, Sarstaedt AG, Nümbrecht, Germany) were coated with 70 ng/well (total volume of 100 µL/well) of mannan (M7504, Sigma-Aldrich, St. Louis) dissolved in 0.1 M NaHCO3 buffer (pH 9.6) overnight at 4°C. After removal of the coating solution, wells were blocked with 100 µL of 5 mM Tris with 2% BSA (Serva, Heidelberg, Germany) at room temperature for 2 h. Plates were washed three times with 100 µL/well washing buffer (5 mM Tris, 0.9% NaCl, 0.05% Tween-20, and 5 mM CaCl2). Next, different concentrations of HA, HS, or CS ranging from 15 µM to 30 nM and hSP-A at 14 ng/well were added to washing buffer with 0.1% BSA. The plate was incubated for 2 h at room temperature to allow the protein to bind to either mannan or GAGs. After subsequent washing, as stated before, mannan-bound hSP-A was immunodetected by incubation with a specific anti-SP-A antibody (ab190087, Abcam, Cambridge, UK) at a 0.5 µg/mL concentration for 2 h at room temperature in washing buffer. After washing the excess of antibody, a secondary antibody conjugated with HRP (horseradish peroxidase) anti-goat (Abcam, ab 6885, Cambridge, UK) was added at 2 µg/mL for 1 h at room temperature. After washing, the color reaction was developed by adding 50 µL of TMB liquid substrate (T0440, Sigma-Aldrich, St. Louis). After 30 min, the reaction was stopped by adding 50 µL of Stop Reagent (S5814, Sigma-Aldrich, St. Louis) and the plate was read at 450 nm in a plate reader (FLUOstar Omega, BMG Labtech, Ortenberg, Germany).
The data of the binding inhibition assay were analyzed in GraphPad Prism 9.5.1 using the “normalize” function and fitting to the nonlinear regression dose-response inhibition. […] The fluorescence values from the collectin-based binding assay were normalized using the same “normalize” function in GraphPad, and the statistical test used was the “non-parametric Kruskal-Wallis” test. The statistical test used for the DMMB assay for GAG quantification was also the “non-parametric Kruskal-Wallis” test.

T1 sequence (Q8IWL2 21-248): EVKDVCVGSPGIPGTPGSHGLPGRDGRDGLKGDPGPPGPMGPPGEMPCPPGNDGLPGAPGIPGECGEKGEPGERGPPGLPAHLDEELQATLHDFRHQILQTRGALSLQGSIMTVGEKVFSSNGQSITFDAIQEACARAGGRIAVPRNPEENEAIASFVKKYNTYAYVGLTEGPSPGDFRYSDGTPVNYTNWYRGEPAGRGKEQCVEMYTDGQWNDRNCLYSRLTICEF
T1 sequence (Q8IWL1 21-248): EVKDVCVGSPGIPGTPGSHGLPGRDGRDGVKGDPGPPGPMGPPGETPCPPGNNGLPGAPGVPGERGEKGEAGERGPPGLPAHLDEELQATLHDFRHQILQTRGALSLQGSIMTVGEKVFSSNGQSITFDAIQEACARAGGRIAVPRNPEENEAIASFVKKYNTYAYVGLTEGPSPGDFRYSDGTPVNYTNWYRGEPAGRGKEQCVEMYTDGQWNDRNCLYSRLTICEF

hSP-A binding inhibition to mannan, in the µM range:
heparan sulfate sodium [HS]
hyaluronic acid sodium salt [HA]
chondroitin sulfate sodium salt [CS]

From paper PMC11380953, “Multivalent, calcium-independent binding of surfactant protein A and D to sulfated glycosaminoglycans of the alveolar epithelial glycocalyx” (American Journal of Physiology - Lung Cellular and …, 2024)
